These results are taken from ChEMBL document CHEMBL1145013, “Studies on the mechanisms of activation of indolequinone phosphoramidate prodrugs” (J Med Chem, 2003).

For orientation: half-life means how long it takes for the measured level to halve.

Data set [1] is described as follows: Half life in presence of glutathione. The format is ADME. Particulars: solution containing glutathione.
The nature of data set [2]: Half life in presence of sodium dimethyldithiocarbamate. Type of data set: ADME. The note with it: solution containing sodium dimethyldithiocarbamate.

For the compound `COC1=CC(=O)c2c(c(COP(N)(=O)N(CCBr)CCBr)cn2C)C1=O` (stereo not drawn), the half-life stood at 35 min in data set [1] and 14 min in data set [2].

Turning to `COC1=CC(=O)c2c(cc(COP(N)(=O)N(CCBr)CCBr)n2C)C1=O` (stereo not drawn), the half-life was found to be 653 min in data set [1] and 26 min in data set [2].

`COC1=CC(=O)c2c(cc(COP(N)(=O)N3CCOCC3)n2C)C1=O` (stereo not drawn): the half-life in data set [1] worked out at 716 min; in data set [2], 659 min.

As for `COC1=CC(=O)c2c(c(COP(N)(=O)N3CCOCC3)cn2C)C1=O` (stereo not drawn), the results for the half-life in data set [1] and in data set [2] were 83 min and 34 min, respectively.
